Data on 23 compounds can be found in patent US7842695B2, “Substituted pyrazole compounds” (Merck Patent GmbH, priority 2003, dated 2010).

One assay addresses 5-HT2A receptors (UniProt P14842). The assay can be described thus: in-vitro affinity to 5-HT2A receptors, [3H]ketanserine displacement (Example A1). Type of assay: binding. An excerpt: The 5-HT2A receptors are exposed both to [^3H]ketanserine (a substance known for its affinity to the receptor) and also to the test compound. The decrease in the affinity of [^3H]ketanserine to the receptor is an indication of the affinity of the test substance to the 5-HT2A receptor.

A further assay deals with T1, 5 HT2C receptor (Homo sapiens, UniProt P28335).
T1 sequence (P28335 33-458): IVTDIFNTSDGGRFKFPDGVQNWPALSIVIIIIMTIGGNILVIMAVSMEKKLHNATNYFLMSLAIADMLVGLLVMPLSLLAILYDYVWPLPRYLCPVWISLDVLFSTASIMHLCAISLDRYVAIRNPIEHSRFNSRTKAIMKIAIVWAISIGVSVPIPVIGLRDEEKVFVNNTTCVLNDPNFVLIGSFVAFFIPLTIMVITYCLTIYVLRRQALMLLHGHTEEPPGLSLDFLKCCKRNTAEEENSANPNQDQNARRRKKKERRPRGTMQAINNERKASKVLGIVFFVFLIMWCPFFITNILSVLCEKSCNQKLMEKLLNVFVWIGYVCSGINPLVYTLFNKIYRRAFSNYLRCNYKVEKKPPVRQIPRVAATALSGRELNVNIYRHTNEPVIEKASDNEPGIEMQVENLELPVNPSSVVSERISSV
The assay can be described thus: affinity to the 5 HT2C receptor. The format is binding.

SMILES strings stand for the structures.

For `CN(C)CCCN(C)Cc1cnn(-c2ccc(-c3ccc(F)cc3)cc2)c1-c1ccco1` [Example 659, N-[1-(4′-Fluorobiphenyl-4-yl)-5-furan-2-yl-1H-pyrazol-4-ylmethyl]-N,N′,N′-trimethylpropane-1,3-diamine], the IC50 at 5-HT2A receptors was determined as 76 nM; against 5 HT2C receptor it was 810 nM.
As for `c1coc(-c2c(CN3CCN(C4CCCC4)CC3)cnn2-c2ccc(-c3ccc4c(c3)OCO4)cc2)c1` [Example 569, 1-[1-(4-Benzo-1,3-dioxol-5-ylphenyl)-5-furan-2-yl-1H-pyrazol-4-ylmethyl]-4-cyclopentylpiperazine], the concentration for half-maximal inhibition (IC50) at 5-HT2A receptors was 12 nM; on 5 HT2C receptor, 1000 nM.
Take `Cc1ccoc1-c1c(CN2CCN(C)CC2)cnn1-c1ccc(-c2ccc(F)cc2)cc1` [Example 560, 1-[1-(4′-Fluorobiphenyl-4-yl)-5-(3-methyl-2-furanyl)-1H-pyrazol-4-ylmethyl]-4-methylpiperazine]: the IC50 was 8.9 nM on 5-HT2A receptors and 780 nM against 5 HT2C receptor.
The corresponding values for `CN(C)Cc1cnn(-c2ccc(-c3ccc4c(c3)OCO4)cc2)c1-c1ccco1` [Example 531, [1-(4-Benzo-1,3-dioxol-5-ylphenyl)-5-furan-2-yl-1H-pyrazol-4-ylmethyl]dimethylamine] are 1.4 nM and 74 nM.
Consider `CN(C)Cc1cnn(-c2ccc(-c3ccc(F)cc3)cc2)c1-c1ccoc1` [Example 576, [1-(4′-Fluorobiphenyl-4-yl)-5-furan-3-yl-1H-pyrazol-4-ylmethyl]dimethylamine], for which the IC50 on 5-HT2A receptors is 16 nM; on 5 HT2C receptor, 180 nM.
In the case of `CCN1CCN(Cc2cnn(-c3ccc(-c4ccc(F)cc4)cn3)c2-c2ccco2)CC1` [Example 583, 1-Ethyl-4-{1-[5-(4-fluorophenyl)pyridin-2-yl]-5-furan-2-yl-1H-pyrazol-4-ylmethyl}piperazine], the values for the IC50 on 5-HT2A receptors and on 5 HT2C receptor were 18 nM and 1000 nM, respectively.
With `CN(C)C1CCN(Cc2cnn(-c3ccc(-c4ccc(F)cc4)cc3)c2-c2ccco2)C1` (stereo not shown) [Example 537, {1-[1-(4′-Fluorobiphenyl-4-yl)-5-furan-2-yl-1H-pyrazol-4-ylmethyl]pyrrolidin-3-yl}dimethylamine], the IC50 was 3.1 nM on 5-HT2A receptors and 620 nM at 5 HT2C receptor.
The corresponding values for `Cc1ccoc1-c1c(CN(C)C)cnn1-c1ccc(-c2ccc(F)cc2)cc1` [Example 553, [1-(4′-Fluorobiphenyl-4-yl)-5-(3-methyl-2-furanyl)-1H-pyrazol-4-ylmethyl]dimethylamine] are 6.5 nM and 360 nM.
The corresponding values for `CN1CCN(Cc2cnn(-c3ccc(-c4cc(F)ccc4F)cc3)c2-c2ccco2)CC1` [Example 624, 1-[1-(2′,5′-Difluorobiphenyl-4-yl)-5-furan-2-yl-1H-pyrazol-4-ylmethyl]-4-methylpiperazine] are 36 nM and 280 nM.
With `Fc1ccc(-c2ccc(-n3ncc(CN4CCN(C5CCCC5)CC4)c3-c3ccco3)cc2)cc1` [Example 545, 1-Cyclopentyl-4-[1-(4′-fluorobiphenyl-4-yl)-5-furan-2-yl-1H-pyrazol-4-ylmethyl]piperazine], the values for the IC50 at 5-HT2A receptors and against 5 HT2C receptor were 4.8 nM and 2000 nM, respectively.
With `CN1CCN(Cc2cnn(-c3ccc(-c4ccc5c(c4)OCO5)cc3)c2-c2ccco2)CC1` [Example 550, 1-[1-(4-Benzo-1,3-dioxol-5-ylphenyl)-5-furan-2-yl-1H-pyrazol-4-ylmethyl]-4-methylpiperazine], the IC50 at 5-HT2A receptors was found to be 5.8 nM; on 5 HT2C receptor, 170 nM.
For the compound `COc1ccccc1-c1c(CN2CCN(C)CC2)cnn1-c1ccc(-c2cc(F)ccc2F)cc1` [Example 660, 1-[1-(2′,5′-Difluorobiphenyl-4-yl)-5-(2-methoxyphenyl)-1H-pyrazol-4-ylmethyl]-4-methylpiperazine], the IC50 on 5-HT2A receptors amounted to 77 nM; against 5 HT2C receptor it was 630 nM.
As for `c1coc(-c2c(CN3CCNCC3)cnn2-c2ccc(-c3ccc4c(c3)OCO4)cc2)c1` [Example 534, 1-[1-(4-Benzo-1,3-dioxol-5-ylphenyl)-5-furan-2-yl-1H-pyrazol-4-ylmethyl]piperazine], the half-inhibitory concentration (IC50) on 5-HT2A receptors was found to be 2 nM; at 5 HT2C receptor, 110 nM.
For `OC1CCN(Cc2cnn(-c3ccc(-c4cccc(F)c4)cc3)c2-c2ccco2)C1` (stereo not shown) [Example 562, 1-[1-(3′-Fluorobiphenyl-4-yl)-5-furan-2-yl-1H-pyrazol-4-ylmethyl]pyrrolidin-3-ol], the values for the half-maximal inhibitory concentration (IC50) on 5-HT2A receptors and at 5 HT2C receptor were 9.1 nM and 530 nM, respectively.
As for `CC(C)(C)OC(=O)N1CCN(Cc2cnn(-c3ccc(-c4ccc5c(c4)OCO5)cc3)c2-c2ccco2)CC1` [Example 547, tert-Butyl 4-[1-(4-benzo-1,3-dioxol-5-ylphenyl)-5-furan-2-yl-1H-pyrazol-4-ylmethyl]piperazine-1-carboxylate], the half-maximal inhibitory concentration (IC50) is 4.8 nM at 5-HT2A receptors and 1000 nM on 5 HT2C receptor.
Regarding `CCN(CC)Cc1cnn(-c2ccc(-c3cccc(F)c3)cc2)c1-c1ccco1` [Example 606, Diethyl-[1-(3′-fluorobiphenyl-4-yl)-5-furan-2-yl-1H-pyrazol-4-ylmethyl]amine], the half-maximal inhibitory concentration (IC50) on 5-HT2A receptors came out at 27 nM; on 5 HT2C receptor it was 1000 nM.
Consider `CCN1CCN(Cc2cnn(-c3ccc(-c4cccc(F)c4)cc3)c2-c2ccco2)CC1` [Example 570, 1-Ethyl-4-[1-(3′-fluorobiphenyl-4-yl)-5-furan-2-yl-1H-pyrazol-4-ylmethyl]piperazine], for which the results for the IC50 on 5-HT2A receptors and against 5 HT2C receptor were 12 nM and 500 nM, respectively.
`CN1CCC(N(C)Cc2cnn(-c3ccc(-c4ccc(F)cc4)cc3)c2-c2ccco2)C1` (stereo not shown) [Example 543, [1-(4′-Fluorobiphenyl-4-yl)-5-furan-2-yl-1H-pyrazol-4-ylmethyl]methyl-(1-methyl-3-pyrrolidinyl)amine]: the IC50 was determined as 4 nM at 5-HT2A receptors and 370 nM against 5 HT2C receptor.
For `CN1CCC(N(C)Cc2cnn(-c3ccc(-c4ccc(F)cc4)cc3)c2-c2ccco2)C1` (stereo not shown) [Example 529, [1-(4′-Fluorobiphenyl-4-yl)-5-furan-2-yl-1H-pyrazol-4-ylmethyl]methyl-(1-methylpyrrolidin-3-yl)amine], the results for the IC50 at 5-HT2A receptors and on 5 HT2C receptor were 0.514 nM and 434 nM, respectively.
Turning to `Fc1ccc(-c2ccc(-n3ncc(CN4CCN(C5CCCC5)CC4)c3-c3ccco3)nc2)cc1` [Example 591, 1-Cyclopentyl-4-{1-[5-(4-fluorophenyl)pyridin-2-yl]-5-furan-2-yl-1H-pyrazol-4-ylmethyl}piperazine], the results for the IC50 on 5-HT2A receptors and on 5 HT2C receptor were 20 nM and 1000 nM, respectively.
`CCN(CC)Cc1cnn(-c2ccc(-c3ccc4c(c3)OCO4)cc2)c1-c1ccco1` [Example 602, [1-(4-Benzo-1,3-dioxol-5-ylphenyl)-5-furan-2-yl-1H-pyrazol-4-ylmethyl]diethylamine]: the figures for the IC50 at 5-HT2A receptors and against 5 HT2C receptor were 26 nM and 610 nM, respectively.
The corresponding values for `CCN1CCN(Cc2cnn(-c3ccc(-c4ccc(F)cc4)cc3)c2-n2cccc2)CC1` [Example 613, 1-Ethyl-4-[1-(4′-fluorobiphenyl-4-yl)-5-pyrrol-1-yl-1H-pyrazol-4-ylmethyl]piperazine] are 32 nM and 1000 nM.
`COc1ccc(-c2ccc(-n3ncc(CN(C)C)c3-c3ccco3)cc2)cc1` [Example 542, [5-Furan-2-yl-1-(4′-methoxybiphenyl-4-yl)-1H-pyrazol-4-ylmethyl]dimethylamine]: the values for the IC50 on 5-HT2A receptors and against 5 HT2C receptor were 3.8 nM and 290 nM, respectively.
